20 compounds from PubChem BioAssay AID330 (DTP/NCI, 2004) can be followed below.

“And” between values parts separate entries of the source, which are not always exact repeats. Equal values may be shown once. Inconclusive results and toxic doses are left out.

This experiment concerns P388 leukemia ip, CD2F1 mice, survival T/C. Briefly: NCI In Vivo Anticancer Drug Screen. Data for tumor model P388 Leukemia (intraperitoneal) in CD2F1 (CDF1) mice. The conditions noted are these: endpoint: median survival time, higher = longer survival. The essentials:
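Mice carrying the transplanted tumor received test compound or vehicle. Survival was recorded in each group, and the value is the treated-group measurement divided by that of the vehicle-treated control group.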

Setting [1] is: dose: 60.0 mg/kg/injection, schedule: Q01DX005 (ip), vehicle: saline with Tween-80.
Where [2] appears, read: dose: 120.0 mg/kg/injection, schedule: Q01DX005 (ip), vehicle: saline with Tween-80.
The mark [3] stands for this setting: dose: 240.0 mg/kg/injection, schedule: Q01DX005 (ip), vehicle: saline with Tween-80.
Where [4] appears, read: dose: 50.0 mg/kg/injection, schedule: Q01DX005 (ip), vehicle: Klucel (hydroxypropylcellulose) (HPC).
Where [5] appears, read: dose: 100.0 mg/kg/injection, schedule: Q01DX005 (ip), vehicle: Klucel (hydroxypropylcellulose) (HPC).
[6] abbreviates: dose: 200.0 mg/kg/injection, schedule: Q01DX005 (ip), vehicle: Klucel (hydroxypropylcellulose) (HPC).
Setting [7] is: dose: 60.0 mg/kg/injection, schedule: Q01DX005 (ip), vehicle: Klucel (hydroxypropylcellulose) (HPC).
[8] abbreviates: dose: 120.0 mg/kg/injection, schedule: Q01DX005 (ip), vehicle: Klucel (hydroxypropylcellulose) (HPC).
Setting [9] is: dose: 240.0 mg/kg/injection, schedule: Q01DX005 (ip), vehicle: Klucel (hydroxypropylcellulose) (HPC).
The mark [10] stands for this setting: dose: 50.0 mg/kg/injection, schedule: Q01DX005 (ip), vehicle: saline with Tween-80.
Where [11] appears, read: dose: 100.0 mg/kg/injection, schedule: Q01DX005 (ip), vehicle: saline with Tween-80.
The mark [12] stands for this setting: dose: 200.0 mg/kg/injection, schedule: Q01DX005 (ip), vehicle: saline with Tween-80.

Regarding `O=[N+]([O-])c1ccc(O)c(CNCCCl)c1`, the T/C was 95 % of control (dose: 25.0 mg/kg/injection, schedule: Q04DX002 (ip), vehicle: DMSO); 98 % of control (dose: 50.0 mg/kg/injection, schedule: Q04DX002 (ip), vehicle: DMSO); 89 % of control (dose: 100.0 mg/kg/injection, schedule: Q04DX002 (ip), vehicle: DMSO).

`CCCc1nc(N)[nH]c(=O)c1CCCCc1ccccc1`: the T/C is, setting by setting: under setting [1], 90 % of control and 96 % of control; under setting [2], 88 % of control and 103 % of control; under setting [3], 96 % of control and 87 % of control.

Turning to `COc1cc2c(cc1Cc1ccc3c(c1)OCO3)OCO2`, the T/C was 94 % of control under setting [4], 92 % of control under setting [5] and 89 % of control under setting [6].

For `O=C(Nc1cccc(C(F)(F)F)c1)C(Cl)=C(Cl)Cl`, the T/C reads like this: under setting [7], 103 % of control; under setting [8], 111 % of control; under setting [9], 95 % of control.

In the case of `CC(=O)NS(=O)(=O)c1ccc(NCc2c3ccccc3nc3cc(Cl)ccc23)cc1`, the T/C by setting is: under setting [1], 114 % of control; under setting [2], 102 % of control; under setting [3], 105 % of control.

Regarding `O=C(c1ccccc1)C(SSN1CCOCC1)C(=O)c1ccccc1`, the T/C is, setting by setting: (dose: 50.0 mg/kg/injection, schedule: Q01DX009 (ip), vehicle: saline with Tween-80) 91 % of control; (dose: 100.0 mg/kg/injection, schedule: Q01DX009 (ip), vehicle: saline with Tween-80) 100 % of control; (dose: 200.0 mg/kg/injection, schedule: Q01DX009 (ip), vehicle: saline with Tween-80) 106 % of control.

Take `CCc1nc(N)nc(N)c1-c1ccc(NC)c(N)c1`: the T/C was 96 % of control (dose: 100.0 mg/kg/injection, schedule: Q04DX002 (ip), vehicle: Klucel (hydroxypropylcellulose) (HPC)) and 105 % of control (dose: 200.0 mg/kg/injection, schedule: Q04DX002 (ip), vehicle: Klucel (hydroxypropylcellulose) (HPC)).

Turning to `O=C1Oc2ccccc2C(=O)C1=Ic1ccccc1`, the T/C is 88 % of control under setting [4], 94 % of control under setting [5] and 95 % of control under setting [6].

Turning to `O=Cc1c2ccc(Cl)cc2nc2cc(Cl)ccc12`, the T/C is, setting by setting: (dose: 25.0 mg/kg/injection, schedule: Q01DX001 (ip), vehicle: saline with Tween-80) 100 % of control; (dose: 50.0 mg/kg/injection, schedule: Q01DX001 (ip), vehicle: saline with Tween-80) 90 % of control; (dose: 100.0 mg/kg/injection, schedule: Q01DX001 (ip), vehicle: saline with Tween-80) 100 % of control.

As for `CCOC(=O)c1ccc(NC(=O)CCOc2ccccc2)cc1`, the T/C under setting [7] is 88 % of control, the T/C under setting [8] is 88 % of control and the T/C under setting [9] is 87 % of control.

Consider `CCC(c1ccccc1)c1cc(C(C)(C)C)cc(C(C)(C)C)c1O` (stereo not given), for which the T/C (dose: 50.0 mg/kg/injection, schedule: Q01DX005 (ip), vehicle: distilled water + alcohol) was 100 % of control; the T/C (dose: 100.0 mg/kg/injection, schedule: Q01DX005 (ip), vehicle: distilled water + alcohol) was 107 % of control; the T/C (dose: 200.0 mg/kg/injection, schedule: Q01DX005 (ip), vehicle: distilled water + alcohol) is 100 % of control.

`COc1ccc2c(c1O)-c1c(OC)c(O)cc3c1C(C2)NCC3` (stereo not given): the T/C is, setting by setting: (dose: 32.0 mg/kg/injection, schedule: Q01DX009 (ip), vehicle: Klucel (hydroxypropylcellulose) (HPC)) 96 % of control; (dose: 64.0 mg/kg/injection, schedule: Q01DX009 (ip), vehicle: Klucel (hydroxypropylcellulose) (HPC)) 93 % of control; (dose: 128.0 mg/kg/injection, schedule: Q01DX009 (ip), vehicle: Klucel (hydroxypropylcellulose) (HPC)) 100 % of control; (dose: 256.0 mg/kg/injection, schedule: Q01DX009 (ip), vehicle: Klucel (hydroxypropylcellulose) (HPC)) 102 % of control.

For the compound `Cc1c(O)c2ccccc2c2c1sc(NCCCN(CCO)CCO)[n+]2C`, the T/C is, setting by setting: (dose: 7.5 mg/kg/injection, schedule: Q01DX005 (ip), vehicle: saline) 109 % of control; (dose: 15.0 mg/kg/injection, schedule: Q01DX005 (ip), vehicle: saline) 107 % of control; (dose: 30.0 mg/kg/injection, schedule: Q01DX005 (ip), vehicle: saline) 110 % of control.

Consider `CCC1(c2ccccc2)NN1C1CCCCC1` (stereo not given), for which the T/C is 100 % of control (dose: 6.25 mg/kg/injection, schedule: Q01DX005 (ip), vehicle: saline with Tween-80); 96 % of control (dose: 12.5 mg/kg/injection, schedule: Q01DX005 (ip), vehicle: saline with Tween-80); 92 % of control (dose: 25.0 mg/kg/injection, schedule: Q01DX005 (ip), vehicle: saline with Tween-80); 96 % of control under setting [10]; 100 % of control under setting [11]; 105 % of control under setting [12].

Turning to `O=NNc1ncc(Cl)cc1Cl`, the T/C by setting is: (dose: 1.56 mg/kg/injection, schedule: Q01DX009 (ip), vehicle: water) 106 % of control; (dose: 3.12 mg/kg/injection, schedule: Q01DX009 (ip), vehicle: water) 101 % of control; (dose: 6.0 mg/kg/injection, schedule: Q01DX009 (ip), vehicle: water) 118 % of control; (dose: 6.25 mg/kg/injection, schedule: Q01DX009 (ip), vehicle: water) 107 % of control; (dose: 12.5 mg/kg/injection, schedule: Q01DX009 (ip), vehicle: water) 111 % of control and 120 % of control; (dose: 25.0 mg/kg/injection, schedule: Q01DX009 (ip), vehicle: water) 120 % of control.

With `CCC(CC)C(Nc1nncs1)Nc1nncs1`, the T/C under setting [10] is 90 % of control, the T/C under setting [11] is 112 % of control and the T/C under setting [12] was 116 % of control.

Take `O=C1OC(Cl)C(c2ccccc2)=C1c1ccccc1` (stereo not given): the T/C is, setting by setting: (dose: 100.0 mg/kg/injection, schedule: Q04DX002 (ip), vehicle: saline) 96 % of control; (dose: 200.0 mg/kg/injection, schedule: Q04DX002 (ip), vehicle: saline) 98 % of control; (dose: 400.0 mg/kg/injection, schedule: Q04DX002 (ip), vehicle: saline) 105 % of control.

On to `Cc1ccc(C(=O)NNC(=O)Nc2cccc(Cl)c2C)cc1`, for which the T/C reads like this: (dose: 50.0 mg/kg/injection, schedule: Q01DX009 (ip), vehicle: Klucel (hydroxypropylcellulose) (HPC)) 92 % of control; (dose: 100.0 mg/kg/injection, schedule: Q01DX009 (ip), vehicle: Klucel (hydroxypropylcellulose) (HPC)) 89 % of control; (dose: 200.0 mg/kg/injection, schedule: Q01DX009 (ip), vehicle: Klucel (hydroxypropylcellulose) (HPC)) 93 % of control.

As for `COc1cc2c(c(OC)c1OC)-c1ccc(SC)c(=O)cc1[C@@H](NC(=O)CCl)CC2`, the T/C is 124 % of control (dose: 0.03 mg/kg/injection, schedule: Q01DX009 (ip), vehicle: water) and 155 % of control (dose: 0.4 mg/kg/injection, schedule: Q01DX009 (ip), vehicle: water).

On to `O=c1cc(CCc2ccccc2)c2ccccc2[nH]1`, for which the T/C by setting is: (dose: 100.0 mg/kg/injection, schedule: Q04DX002 (ip), vehicle: saline with Tween-80) 94 % of control; (dose: 200.0 mg/kg/injection, schedule: Q04DX002 (ip), vehicle: saline with Tween-80) 94 % of control; (dose: 400.0 mg/kg/injection, schedule: Q04DX002 (ip), vehicle: saline with Tween-80) 95 % of control.
